In PubChem BioAssay (NCI):
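Interpolation was linear, between the two tested concentrations surrounding the appropriate level; five concentrations were tested over 48 hours in 96-well plates. Here, GI50 denotes the concentration required for 50% inhibition of growth. TGI: total growth inhibition.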

Columns and labels:
Assay in all cases: growth of human tumour cells (NCI), 48 h
HCC-2998 colon = system: HCC-2998 colon
A549 NSCLC = system: A549 NSCLC
MDA-MB-231 breast = system: MDA-MB-231 breast
RXF 393 renal = system: RXF 393 renal
BT-549 breast = system: BT-549 breast
HCT-15 colon = system: HCT-15 colon
UACC-62 melanoma = system: UACC-62 melanoma
NCI/ADR-RES ovarian = system: NCI/ADR-RES ovarian
SK-MEL-2 melanoma = system: SK-MEL-2 melanoma
CCRF-CEM leukemia = system: CCRF-CEM leukemia
SNB-75 CNS = system: SNB-75 CNS
OVCAR-3 ovarian = system: OVCAR-3 ovarian
NCI-H460 lung = system: NCI-H460 lung
HOP-92 NSCLC = system: HOP-92 NSCLC
K-562 leukemia = system: K-562 leukemia
SF-295 CNS = system: SF-295 CNS
SF-268 CNS = system: SF-268 CNS
NCI-H226 lung = system: NCI-H226 lung
KM12 colon = system: KM12 colon
TK-10 renal = system: TK-10 renal
LOX IMVI melanoma = system: LOX IMVI melanoma
PC-3 prostate = system: PC-3 prostate
SR leukemia = system: SR leukemia
ACHN renal = system: ACHN renal
MALME-3M melanoma = system: MALME-3M melanoma
CAKI-1 renal = system: CAKI-1 renal
RPMI-8226 leukemia = system: RPMI-8226 leukemia
COLO 205 colon = system: COLO 205 colon
SK-MEL-5 melanoma = system: SK-MEL-5 melanoma
IGROV1 ovarian = system: IGROV1 ovarian
SK-OV-3 ovarian = system: SK-OV-3 ovarian
SN12C renal = system: SN12C renal
NCI-H522 lung = system: NCI-H522 lung
OVCAR-8 ovarian = system: OVCAR-8 ovarian
NCI-H23 lung = system: NCI-H23 lung
SNB-19 CNS = system: SNB-19 CNS
MDA-MB-435 = system: MDA-MB-435
HCT-116 colon = system: HCT-116 colon
T-47D breast = system: T-47D breast
HOP-62 NSCLC = system: HOP-62 NSCLC
MOLT-4 leukemia = system: MOLT-4 leukemia
SK-MEL-28 melanoma = system: SK-MEL-28 melanoma
SW-620 colon = system: SW-620 colon
A498 renal = system: A498 renal
786-0 renal = system: 786-0 renal
SF-539 CNS = system: SF-539 CNS
MCF7 breast = system: MCF7 breast
HL-60(TB) leukemia = system: HL-60(TB) leukemia
HS 578T breast = system: HS 578T breast
UO-31 renal = system: UO-31 renal
UACC-257 melanoma = system: UACC-257 melanoma
OVCAR-5 ovarian = system: OVCAR-5 ovarian
DU-145 prostate = system: DU-145 prostate
M14 melanoma = system: M14 melanoma

O=C(Nc1cccc2[nH]c(C(F)(F)F)nc12)c1ccc(Br)cc1F
GI50 (HCC-2998 colon): 4.8 µM
TGI (HCC-2998 colon): 16 µM
GI50 (A549 NSCLC): 3.27 µM
TGI (A549 NSCLC): 13.3 µM
GI50 (MDA-MB-231 breast): 2170 nM
TGI (MDA-MB-231 breast): 6.19 µM
GI50 (RXF 393 renal): 3.1 µM
TGI (RXF 393 renal): 9.12 µM
GI50 (BT-549 breast): 3.01 µM
TGI (BT-549 breast): 10.3 µM
GI50 (HCT-15 colon): 3.33 µM
TGI (HCT-15 colon): 14.1 µM
GI50 (UACC-62 melanoma): 3.26 µM
TGI (UACC-62 melanoma): 13.5 µM
GI50 (NCI/ADR-RES ovarian): 3.35 µM
TGI (NCI/ADR-RES ovarian): 12.2 µM
GI50 (SK-MEL-2 melanoma): 320 nM
TGI (SK-MEL-2 melanoma): 2120 nM
GI50 (CCRF-CEM leukemia): 3.23 µM
TGI (CCRF-CEM leukemia): 20.1 µM
GI50 (SNB-75 CNS): 2680 nM
TGI (SNB-75 CNS): 18 µM
GI50 (OVCAR-3 ovarian): 3.62 µM
TGI (OVCAR-3 ovarian): 16.8 µM
GI50 (NCI-H460 lung): 3.45 µM
TGI (NCI-H460 lung): 12.4 µM
GI50 (HOP-92 NSCLC): 1380 nM
TGI (HOP-92 NSCLC): 4.1 µM
GI50 (K-562 leukemia): 3.37 µM
TGI (K-562 leukemia): 39.2 µM
GI50 (SF-295 CNS): 2940 nM
TGI (SF-295 CNS): 10.3 µM
GI50 (SF-268 CNS): 4.17 µM
TGI (SF-268 CNS): 21.4 µM
GI50 (NCI-H226 lung): 2970 nM
TGI (NCI-H226 lung): 12.8 µM
GI50 (KM12 colon): 3.29 µM
TGI (KM12 colon): 12 µM
GI50 (TK-10 renal): 3.43 µM
TGI (TK-10 renal): 9.55 µM
GI50 (LOX IMVI melanoma): 3.78 µM
TGI (LOX IMVI melanoma): 12.5 µM
GI50 (PC-3 prostate): 2750 nM
TGI (PC-3 prostate): 10.4 µM
GI50 (SR leukemia): 3.51 µM
TGI (SR leukemia): 16.1 µM
GI50 (ACHN renal): 3.08 µM
TGI (ACHN renal): 11.1 µM
GI50 (MALME-3M melanoma): 2860 nM
TGI (MALME-3M melanoma): 6.82 µM
GI50 (CAKI-1 renal): 2890 nM
TGI (CAKI-1 renal): 15.7 µM
GI50 (RPMI-8226 leukemia): 2440 nM
TGI (RPMI-8226 leukemia): 7.9 µM
GI50 (COLO 205 colon): 2630 nM
TGI (COLO 205 colon): 6.33 µM
GI50 (SK-MEL-5 melanoma): 1850 nM
TGI (SK-MEL-5 melanoma): 3.94 µM
GI50 (IGROV1 ovarian): 6.75 µM
TGI (IGROV1 ovarian): 32.4 µM
GI50 (SK-OV-3 ovarian): 2640 nM
TGI (SK-OV-3 ovarian): 9.27 µM
GI50 (SN12C renal): 3.1 µM
TGI (SN12C renal): 10.8 µM
GI50 (NCI-H522 lung): 2550 nM
TGI (NCI-H522 lung): 8.26 µM
GI50 (OVCAR-8 ovarian): 3.14 µM
TGI (OVCAR-8 ovarian): 15.6 µM
GI50 (NCI-H23 lung): 3.12 µM
TGI (NCI-H23 lung): 10.6 µM
GI50 (SNB-19 CNS): 3.79 µM
TGI (SNB-19 CNS): 14.6 µM
GI50 (MDA-MB-435): 3.33 µM
TGI (MDA-MB-435): 12.1 µM
GI50 (HCT-116 colon): 3.16 µM
TGI (HCT-116 colon): 11.4 µM
GI50 (T-47D breast): 2260 nM
TGI (T-47D breast): 7.49 µM
GI50 (HOP-62 NSCLC): 2430 nM
TGI (HOP-62 NSCLC): 8.88 µM
GI50 (MOLT-4 leukemia): 3.83 µM
TGI (MOLT-4 leukemia): 23.3 µM
GI50 (SK-MEL-28 melanoma): 4.76 µM
TGI (SK-MEL-28 melanoma): 16.4 µM
GI50 (SW-620 colon): 3.38 µM
TGI (SW-620 colon): 13.2 µM
GI50 (A498 renal): 2000 nM
TGI (A498 renal): 5.57 µM
GI50 (786-0 renal): 4.05 µM
TGI (786-0 renal): 15.1 µM
GI50 (SF-539 CNS): 3.26 µM
TGI (SF-539 CNS): 11.6 µM
GI50 (MCF7 breast): 2500 nM
TGI (MCF7 breast): 15 µM
GI50 (HL-60(TB) leukemia): 3.05 µM
TGI (HL-60(TB) leukemia): 16 µM
GI50 (HS 578T breast): 3.54 µM
TGI (HS 578T breast): 22.8 µM
GI50 (UO-31 renal): 1980 nM
TGI (UO-31 renal): 7.36 µM
GI50 (UACC-257 melanoma): 2350 nM
TGI (UACC-257 melanoma): 6.67 µM
GI50 (OVCAR-5 ovarian): 5.19 µM
TGI (OVCAR-5 ovarian): 23.5 µM
GI50 (DU-145 prostate): 4.87 µM
TGI (DU-145 prostate): 20.5 µM
GI50 (M14 melanoma): 3.83 µM
TGI (M14 melanoma): 14.5 µM
